Results taken from ChEMBL document CHEMBL1138296, “Synthesis and biological evaluation of alpha-halogenated bisphosphonate and phosphonocarboxylate analogues of risedronate” (J Med Chem, 2007).
pIC50: −log10 of the molar value. Calls of active or inactive are those of the source. The rule behind the calls is not given here.

Columns and labels:
[1] = Reduction of viability of mouse […] cells after 48 hrs; type: cell-based
[2] = Bone mineral affinity on hydroxyaptite assessed as retention time by chromatography; type: functional
[3] = Inhibition of RGGT; design: species or system Homo sapiens
[4] = system: J744; assay: Inhibition of RGGT mediated Rab11 prenylation in […] cells; type: cell-based; conditions: Mus musculus
[5] = biological target: T1, Farnesyl pyrophosphate synthase (Homo sapiens, UniProt P14324); assay: Inhibition of human cloned FPPS expressed in Escherichia col […]
T1 sequence (P14324 whole entry): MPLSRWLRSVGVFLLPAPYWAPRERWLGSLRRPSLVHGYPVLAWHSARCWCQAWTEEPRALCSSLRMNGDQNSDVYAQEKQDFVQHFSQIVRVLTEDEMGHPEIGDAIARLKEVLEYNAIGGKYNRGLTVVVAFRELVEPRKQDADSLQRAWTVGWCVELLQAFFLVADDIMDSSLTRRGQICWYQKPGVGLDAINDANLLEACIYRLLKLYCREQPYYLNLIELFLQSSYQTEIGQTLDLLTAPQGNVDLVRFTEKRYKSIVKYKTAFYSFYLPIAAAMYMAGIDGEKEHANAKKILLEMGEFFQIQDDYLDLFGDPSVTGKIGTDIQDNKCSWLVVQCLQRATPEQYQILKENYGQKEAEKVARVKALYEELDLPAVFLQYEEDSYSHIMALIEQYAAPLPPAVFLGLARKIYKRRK

[6] = system: J744; assay: Inhibition of RGGT mediated Rap1A prenylation in […] cells; type: cell-based; conditions: Mus musculus

SMILES	pIC50 [3]	pIC50 [5]	pIC50 [1]	TIME [2] [h]	MED [4] [µM]	MED [6] [µM]	Activity [2]
O=P(O)(O)C(Br)(Cc1cccnc1)P(=O)(O)O		6.47	3.17	0.0955		400	
O=C(O)C(Cl)(Cc1cccnc1)P(=O)(O)O (stereo not drawn)	4.79	< 3.22	5.30		125		inactive
O=P(O)(O)C(O)(Cc1cccnc1)P(=O)(O)O [RISEDRONIC ACID]			4.51	0.166		12	
O=C(O)C(F)(Cc1cccnc1)P(=O)(O)O (stereo not drawn)	4.79	< 3.22	5.74		31		inactive
O=P(O)(O)C(Cl)(Cc1cccnc1)P(=O)(O)O		7.02	3.17	0.101		400	
O=P(O)(O)C(Cc1cccnc1)P(=O)(O)O		7.47	3.67	0.0972		50	

More lines, main results first:

pIC50 [3]	pIC50 [5]	SMILES	pIC50 [1]	TIME [2] [h]	MED [4] [µM]	MED [6] [µM]	Activity [2]
4.62	3.60	O=C(O)[C@@](O)(Cc1cccnc1)P(=O)(O)O	5.64	0.0767	62		
	7.79	O=P(O)(O)C(F)(Cc1cccnc1)P(=O)(O)O	3.85	0.0988		100	
4.45		O=C(O)C(Cc1cccnc1)P(=O)(O)O (stereo not drawn)	5.59		62		inactive
4.75	< 4.22	O=C(O)C(Br)(Cc1cccnc1)P(=O)(O)O (stereo not drawn)	5.26		125		inactive
